Entries after “also recorded” stand apart in the source; their conditions may differ.
Columns and labels:
[1] = target: T1, PTP1B (50 kDa PTP) (Rattus norvegicus, UniProt P20417); assay: modified in-gel PTP assay (RCML substrate), insulin stimulated Rat-1 cells; assay type: cell-based; details: 50 nM insulin, serum-starved Rat-1 cells
T1 construct: endogenous in cells; host or cells: Rat-1 fibroblasts
T1 sequence (P20417 1-432): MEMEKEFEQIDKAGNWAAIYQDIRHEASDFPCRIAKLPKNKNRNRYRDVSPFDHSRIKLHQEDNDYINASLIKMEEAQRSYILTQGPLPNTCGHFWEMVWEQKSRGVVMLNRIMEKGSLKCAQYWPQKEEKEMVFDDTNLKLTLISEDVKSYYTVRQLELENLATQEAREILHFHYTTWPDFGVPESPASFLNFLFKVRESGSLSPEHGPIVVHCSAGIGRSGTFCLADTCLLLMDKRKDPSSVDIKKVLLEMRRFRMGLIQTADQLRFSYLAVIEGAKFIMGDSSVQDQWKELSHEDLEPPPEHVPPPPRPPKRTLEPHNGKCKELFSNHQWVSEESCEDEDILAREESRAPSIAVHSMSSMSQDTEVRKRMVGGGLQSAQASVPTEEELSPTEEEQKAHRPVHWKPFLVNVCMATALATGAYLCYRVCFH
Procedure: (§1) The effect of insulin-induced H2O2 production on PTP oxidation was examined using the modified in-gel PTP assay essentially as described in Example 1. Serum-starved Rat-1 cells were exposed to 50 nM insulin for 2, 5, 10, 20, and 30 minutes. Lysates were prepared under anaerobic conditions in the presence of 10 mM IAA and then subjected to in-gel PTP assays. The substrate incorporated into the SDS-PAGE gels for these assays was ^32P-labeled reduced, carboxamidomethylated and maleylated lysozyme (RCML) (1.5×10^6 cpm/20 ml gel solution, ˜2 μM p-Tyr).
(§2) The oxidized 45 kDa and 50 kDa PTPs were identified as TC-45 and PTP1B, respectively, by immunodepletion and immunoblotting. Total cell lysates were prepared as described in Example 1. Lysate (400 μg) was incubated with normal IgG, anti-PTP1B antibody (FG6, LaMontagne et al., Mol. Cell. Biol. 18:2965-75 (1998)), or anti-TC45 antibody (1910H, Lorenzen et al., J. Cell. Biol. 131:631-43 (1995)) coupled to protein G-Sepharose ^T beads (Amersham Biosciences). After the immunoprecipitation step, the immune complexes and supernatants were collected and subjected to in-gel PTP assays. Immunodepletion of the 50 kDa PTP from the lysate with anti-PTP1B antibody is shown in FIG. 11B, and immunodepletion of the 45 kDa PTP with antibody specific for TC45 is shown in FIG. 11C. […]

[2] = target: T2, TC45 (45 kDa PTP) (Rattus norvegicus, UniProt P35233); assay: as above; assay type: cell-based; details: 50 nM insulin, serum-starved Rat-1 cells
T2 construct: endogenous in cells; host or cells: Rat-1 fibroblasts
T2 sequence (P35233 1-382 isoform P35233-2): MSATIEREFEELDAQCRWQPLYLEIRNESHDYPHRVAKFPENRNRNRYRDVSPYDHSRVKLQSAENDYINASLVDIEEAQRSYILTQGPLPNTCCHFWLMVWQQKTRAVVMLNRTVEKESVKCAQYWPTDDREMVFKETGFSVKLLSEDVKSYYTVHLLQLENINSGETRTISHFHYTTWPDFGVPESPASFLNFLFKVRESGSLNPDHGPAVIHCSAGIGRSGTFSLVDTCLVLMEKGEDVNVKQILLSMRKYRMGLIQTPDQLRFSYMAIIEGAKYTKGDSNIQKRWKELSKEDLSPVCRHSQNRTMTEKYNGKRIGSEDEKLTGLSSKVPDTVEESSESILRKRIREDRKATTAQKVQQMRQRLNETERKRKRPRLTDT
Procedure: as §1, §2

[3] = target: SHP-2 (E76A mutant) (Homo sapiens, UniProt Q06124, E76A); assay type: biochemical
[4] = system: PTPs in Rat-1 cells; assay: modified in-gel PTP activity assay of Rat-1 cell lysates; assay type: cell-based
Source text: To determine whether ROS stimulated intracellular tyrosine phosphorylation through the oxidation and inhibition of cellular PTPs, a modified in-gel PTP activity assay was devised, as follows: As substrate, poly (4:1) Glu-Tyr (Sigma) was labeled with [γ-^32P]-ATP using the GST-FER fusion PTK, as described previously (Shen et al., 1998 J. Biol. Chem. 273:6474-81). The labeled substrates were used within three weeks to limit the variation of its specific activity from experiment to experiment. The lysis buffer (25 mM CH3COONa, 1% NP-40, 150 mM NaCl, 10% glycerol, pH 5.5) was degassed at 4° C. for overnight, before catalase and superoxide dismutase (both 100 μg/ml), protease inhibitors and 10 mM iodoacetic acid (IAA) were added. Following stimulation, cells were lysed under anaerobic conditions in an argon chamber. Lysates (25 μg) were processed as described herein and an “in-gel” phosphatase assay (Burridge and Nelson, 1995) was conducted using SDS-PAGE gels containing a radioactively-labeled substrate (1.5×10^6 cpm/20 ml gel solution, approximately 2 μM p-Tyr).
Cells were triggered with the appropriate stimulus and harvested under anaerobic conditions in lysis buffer containing IAA. Those PTPs that had not encountered ROS in the cell became irreversibly inactivated by alkylation of their active site Cys with IAA. However, in contrast, any PTPs in which the active site Cys had been oxidized in response to the stimulus were resistant to alkylation. For the “in-gel” phosphatase assay, a 10% SDS-PAGE gel was cast containing a radioactively-labeled substrate. An aliquot of cell lysate was subjected to SDS-PAGE and proteins in the gel were sequentially denatured, then renatured in the presence of reducing reagents. […] The reaction was then terminated by fixing, staining and destaining the gel. Finally the gel was dried and exposed to film. The presence of a PTP was visualized by substrate dephosphorylation, as the appearance of a clear, white area on the black background of labeled substrate.

[5] = system: PTPs in peripheral blood mononuclear lymphocytes; assay: in-gel protection assay, PHA-stimulated peripheral blood mononuclear lymphocytes; assay type: cell-based, human; details: 50 mM IAA, cells without ASBA-1 pretreatment
Procedure: Peripheral blood mononuclear lymphocytes were purified from human blood. In 5 ml media (RPMI), 2×10^7 cells were incubated in 50 μM ASBA-1 (PTP specific inhibitor) for 90 minutes and stimulated with phytohemagglutinin (PHA, 0.5 μL of 5.0 mg/ml stock) for 2, 10 or 30 min. […] Desalted proteins were separated on a 2 ml Source Q anion exchange column (Amersham Pharmacia Biotech) using a 0-1M NaCl gradient in 20 mM Tris, pH 7.5; 1 mM EDTA; 0.05% Triton X-100.

For “insulin: polypeptide hormone used as stimulus”, the “oxidation of 50 kDa PTP (PTP1B)” value [1] was “transiently oxidized; also recorded: induced the transient oxidation” and the “oxidation of 45 kDa PTP (TC45)” value [2] was “transiently oxidized; also recorded: induced the transient oxidation”.
In the case of `O=C(O)CI` [IAA, iodoacetic acid], the “inactivation of purified SHP-2” value [3] is reported as “inactivated by IAA”, the “inactivation of PTPs in lysate by alkylation” value [4] is reported as “effectively inactivated PTPs” and the “inactivation of PTPs” value [5] is reported as “inactivated by IAA”.

Source: US20030215899A1, “Reversible oxidation of protein tyrosine phosphatases” (CEPTYR, Inc., priority 2002, published 2003)
